# Results from paper PMC9078504, “Antiacetylcholinesterase triterpenes from the fruits of Cimicifuga yunnanensis” (RSC Advances, 2018).
# Biological target: T1, acetylcholinesterase (AChE) (Homo sapiens, UniProt P22303)
# T1 construct: derived from human erythrocytes (Sigma)
# Assay: Ellman spectrophotometric assay, acetylthiocholine hydrolysis at […] nm
# Type: biochemical
# T1 sequence (P22303 32-614): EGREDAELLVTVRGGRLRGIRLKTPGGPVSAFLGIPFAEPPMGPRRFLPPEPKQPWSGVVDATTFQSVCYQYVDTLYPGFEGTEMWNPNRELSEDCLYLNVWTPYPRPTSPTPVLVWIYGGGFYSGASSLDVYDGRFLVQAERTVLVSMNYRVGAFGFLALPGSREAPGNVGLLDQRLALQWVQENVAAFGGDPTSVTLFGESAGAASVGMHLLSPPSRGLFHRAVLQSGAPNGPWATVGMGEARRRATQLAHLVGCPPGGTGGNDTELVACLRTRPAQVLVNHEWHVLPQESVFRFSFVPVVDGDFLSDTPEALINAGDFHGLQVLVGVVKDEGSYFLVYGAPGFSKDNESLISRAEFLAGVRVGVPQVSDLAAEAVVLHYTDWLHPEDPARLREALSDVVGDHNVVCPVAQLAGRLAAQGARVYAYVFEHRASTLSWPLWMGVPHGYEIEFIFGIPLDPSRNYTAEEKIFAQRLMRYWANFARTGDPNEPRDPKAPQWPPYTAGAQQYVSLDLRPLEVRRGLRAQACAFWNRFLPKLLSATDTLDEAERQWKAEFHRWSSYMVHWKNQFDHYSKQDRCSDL
row,Structure (SMILES),IC50
1,"CC(=O)O[C@@H]1C[C@@]23C[C@@]24CC[C@H](O[C@@H]2OC[C@H](O)[C@H](O)[C@H]2O)C(C)(C)[C@@H]4CC=C3[C@]2(C)C(=O)C(=O)[C@@]3(O[C@@H]([C@H](O)C(C)(C)O)C[C@H]3C)[C@@]12C [compound 1, (3β,12β,17S,20R,23R,24S)-17,23-Epoxy-15,16-dione-12-acetoxy-3,25-dihydroxy-7-en-9,19-cycloart-3-O-α-larabinopyranoside]",1580 nM
2,"Cc1cc(C=O)nc2c1[C@@]1(C)C[C@H](O)[C@@]34C[C@@]35CC[C@H](O[C@@H]3OC[C@H](O)[C@H](O)[C@H]3O)C(C)(C)[C@@H]5CC=C4[C@]1(C)C2 [compound 2, (3β,11β)-11-Hydroxy-16,23-nitrilo-7,17(20),22-trien-24-formyl-25,26,27-trinor-9,19-cycloart-3-O-α-larabinopyranoside]",3870 nM
